Like-named read-outs stand apart in the source and are kept apart here.
Assays:
Tγ9δ2 lymphocytes [1] = assay: Induced cytotoxicity test, Tγ9δ2 lymphocyte clone stimulated by antigen BrHPP
Tγ8δ3 lymphocytes = settings: clone stimulated by a conventional antigen; increasing concentrations; FIG. 8
Protocol: A test of induced cytotoxicity is carried out as in Example 12, but with a clone of Tγ8δ3 lymphocyte stimulated by a conventional antigen of these lymphocytes (black circles), and in the presence of the compound according to the invention BrHPCP in increasing concentrations in the culture medium (black squares in FIG. 8).

Tγ9δ2 lymphocytes [2] = settings: FIG. 7 lower
Protocol: The two left graphs are obtained by stimulating the Tγ9δ2 lymphocytes as in Example 12, by adding first 9 nM of BrHPP antigen into the culture medium, then by adding increasing concentrations (on the abscissa) of the compound according to the invention, BrHPCP. The two right hand graphs are obtained by incorporating first of all 60 μM of the compound according to the invention, BrHPCP, into the culture medium in contact with the Tγ9δ2 lymphocytes, then by adding increasing concentrations (on the abscissa) of the antigen compound stimulating BrHPP. […] The upper graphs give the percentage of residual response in the cultures (induced cytotoxicity test). The lower graphs give the concentration of TNF salted out in pg/ml.

[3] = read-out: IC50 concentration leading to the inhibition of 50% of the reference response, lymphocytes stimulated by 80 nM BrHPP, induced cytotoxicity test
[4] = read-out: bioactivity (selective inhibition of Tγ9δ2 lymphocytes), concentration of BrHPP equal to 150 μM (so in the source)

Row | Compound | IC50 (Tγ9δ2 lymphocytes [1]; [3]) [µM] | also measured
1 | 3-Methyl-3-butene-1-yl-methylenediphosphonate [I PCP] | 700 | 
2 | CC(O)(CBr)CCOP(=O)(O)C(F)(F)P(=O)(O)O (stereo not shown) [BrH PCF2P, 3-(Bromomethyl)-3-butanol-1-yl-difluoromethylenediphosphonate] | 150 | 
3 | CC(O)(CBr)CCOP(=O)(O)CP(=O)(O)O (stereo not shown) [BrH PCP, 3-(Bromomethyl)-3-butanol-1-yl-methylenediphosphonate] | 15 | inhibition of Tγ8δ3 lymphocytes (Tγ8δ3 lymphocytes): does not inhibit the Tγ8δ3 lymphocytes; inhibition of stimulation by BrHPP (residual response, induced cytotoxicity) (Tγ9δ2 lymphocytes [1]; 9 nM BrHPP first, then increasing BrHPCP, FIG. 7 upper): inhibits the stimulation by BrHPP; reversibility of inhibition (induced cytotoxicity) (Tγ9δ2 lymphocytes [1]; 60 μM BrHPCP first, then increasing BrHPP, FIG. 7 upper): reversible; inhibition of stimulation by BrHPP (TNF salted out) (Tγ9δ2 lymphocytes [2]; 9 nM BrHPP first, then increasing BrHPCP): inhibits the stimulation by BrHPP; reversibility of inhibition (TNF salted out) (Tγ9δ2 lymphocytes [2]; 60 μM BrHPCP first, then increasing BrHPP): reversible
4 | CC(O)(CBr)CCOP(=O)(O)C(F)P(=O)(O)O (stereo not shown) [BrHPCHFP, 3-(bromomethyl)-3-butanol-1-yl-monofluoromethylenediphosphonate] |  | IC50 (Tγ9δ2 lymphocytes [1]; [4]): 30 µM
5 | CC1(CCOP(=O)(O)C(F)(F)P(=O)(O)O)CO1 (stereo not shown) [Epox PCF2P, 3,4-Epoxy-3-methyl-1-butyl-difluoromethylenediphosphonate] | 300 | 
6 | CC1(CCOP(=O)(O)C(F)P(=O)(O)O)CO1 (stereo not shown) [Epox PCHFP, 3,4-epoxy-3-methyl-1-butyl-monofluoromethylenediphosphonate] |  | IC50 (Tγ9δ2 lymphocytes [1]; [4]): 50 µM
7 | CC1(CCOP(=O)(O)CP(=O)(O)O)CO1 (stereo not shown) [Epox PCP, 3,4-Epoxy-3-methyl-1-butyl-methylenediphosphonate] | 30 | IC50 (Tγ9δ2 lymphocytes [1]; read-out: IC50 concentration, stated in text (formulation example), IC50 defined with BrHPP at 80 nM): 15 µM
8 | C=C(C)CCOP(=O)(O)C(F)(F)P(=O)(O)O [I PCF2P, 3-Methyl-3-butene-1-yl-difluoromethylenediphosphonate] | 1000 | 
9 | CC(O)(CI)CCOP(=O)(O)CP(=O)(O)O (stereo not shown) [IH PCP, 3-(Iodomethyl)-3-butanol-1-yl-methylenediphosphonate] | 15 | 
10 | CC(C)(O)CCOP(=O)(O)CP(=O)(O)O [tButOH PCP, 3-Methyl-3-butanol-1-yl-methylenediphosphonate] | 1000 | 
